We go through 28 compounds from patent publication US10981902B2 (Merck Sharp & Dohme Corp., priority 2017, dated 2021).

This assay has as its target T1, human M4 muscarinic acetylcholine receptor (Homo sapiens, UniProt P08173).
T1 construct: expressed in transfected cells; host or cells: CHO-K1
T1 sequence (P08173 1-479): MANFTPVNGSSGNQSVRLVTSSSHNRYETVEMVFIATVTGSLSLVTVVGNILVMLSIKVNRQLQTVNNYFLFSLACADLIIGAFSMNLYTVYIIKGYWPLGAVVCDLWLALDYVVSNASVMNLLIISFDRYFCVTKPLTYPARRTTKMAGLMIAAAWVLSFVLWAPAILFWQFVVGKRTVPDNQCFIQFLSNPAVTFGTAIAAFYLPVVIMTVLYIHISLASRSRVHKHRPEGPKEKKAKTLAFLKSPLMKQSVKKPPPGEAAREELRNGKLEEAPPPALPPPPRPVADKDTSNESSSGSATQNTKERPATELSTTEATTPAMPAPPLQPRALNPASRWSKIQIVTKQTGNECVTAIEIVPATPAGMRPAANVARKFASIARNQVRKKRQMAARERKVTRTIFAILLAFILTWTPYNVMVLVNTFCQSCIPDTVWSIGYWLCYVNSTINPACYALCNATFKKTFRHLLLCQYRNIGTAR
Put plainly: human FLIPR-based M4 PAM assay (calcium mobilization, CHO-K1 cells with human M4 receptor and Gαqi5). The class given is cell-based. Particulars: inflection point (IP) of dose response curve, acetylcholine added at 20% of maximum response, read-out: M4 FLIPPR Hu IP. Here is the method:
In a typical experiment the M4 muscarinic acetylcholine receptor modulating activity of the compounds of the present invention was determined in accordance with the following experimental method. CHO-K1 cells stably transfected with human M4 receptor and chimeric G-protein Gαqi5 (Coward P, et al., Analytical Biochemistry, 270:242-248 (1999)) are thawed from liquid N2 storage, resuspended in growth medium, plated in black, clear bottom 384 well plates, and incubated 16-20 hours at 37° C., 5% CO2. On the day of assay, growth medium is removed, the cells are washed 2 times with wash buffer, and cells are incubated in dye loading buffer at 37° C., 5% CO2 for ˜1 hour. Following dye loading the cell plates are placed in a FLIPR Tetra instrument and while monitoring dye fluorescence (excitation […]), 10 uL of test substance at increasing concentrations is added, and fluorescence values are recorded for 4 min. Next, 10 uL of acetylcholine is added (final concentration calculated so as to achieve 20% of the maximum acetycholine response), and the fluorescence reading is continued for 3.5 min. In some cases, a third addition of acetylcholine (final concentration calculated to achieve 70% of the maximal acetylcholine response) is performed. The resulting dose response curves are fit to a 4 parameter logistic equation and the final result is determined as the inflection point (IP) of the curve
CHO-K1 cells stably transfected with human M4 receptor and chimeric G-protein Gαqi5 are thawed from liquid N2 storage, resuspended in growth medium, plated in black, clear bottom 384 well plates, and incubated 16-20 hours at 37° C., 5% CO2.
On the day of assay, growth medium is removed, the cells are washed 2 times with wash buffer, and cells are incuabted in dye loading buffer at 37° C., 5% CO2 for ˜1 h. Following dye loading the cell plates are placed in a FLIPR Tetra instrument and while monitoring dye fluorescence ([…]), 10 uL of test substance at increasing concentrations is added, and fluorescence values are recorded for 4 min. Next, 10 uL of acetylcholine is added (final concentration calculated so as to achieve 20% of the maximum acetycholine response), and the fluorescence reading is continued for 3.5 min. In some cases, a third addition of acetylcholine (final concentration calculated to achieve 70% of the maximal acetylcholine response) is performed.
With `N#Cc1ccc(-c2cnc(CC3(C(F)(F)F)CC3)o2)c(-c2ccn3ccnc3c2)n1` [Example 21, 6-(imidazo[1,2-a]-pyridin-7-yl)-5-(2-((1-(trifluoromethyl)-cyclopropyl)methyl)-oxazol-5-yl)picolino-nitrile], the EC50 was determined as 82 nM. As for `CN1Cc2ccc(-c3nc(C#N)ccc3-c3cnc(CC(C)(C)C(F)(F)F)o3)cc2C1=O` [Example 22, 6-(2-methyl-3-oxoisoindolin-5-yl)-5-(2-(3,3,3-trifluoro-2,2-dimethylpropyl)-oxazol-5-yl)picolino-nitrile], the EC50 is 76 nM. `CC(C)(Cc1ncc(-c2ccc(C#N)nc2-c2ccc3cccnc3c2)o1)C(F)(F)F` [Example 23, 6-(quinolin-7-yl)-5-(2-(3,3,3-trifluoro-2,2-dimethylpropyl)-oxazol-5-yl)picolino-nitrile]: the EC50 was determined as 104 nM. Next, `CC(C)(Cc1ncc(-c2ccc(C(F)F)nc2-c2ccc3cccnc3c2)o1)C(F)(F)F` [Example 24, 5-(6-(difluoro-methyl)-2-(quinolin-7-yl)pyridin-3-yl)-2-(3,3,3-trifluoro-2,2-dimethylpropyl)-oxazole]: 136 nM; `CC(C)(Cc1ncc(-c2ccc(C(F)F)nc2-c2ccn3ccnc3c2)o1)C(F)(F)F` [Example 25, 5-(6-(difluoromethyl)-2-(imidazo[1,2-a]-pyridin-7-yl)pyridin-3-yl)-2-(3,3,3-trifluoro-2,2-dimethylpropyl)-oxazole]: 35 nM; `CN1Cc2ccc(-c3nc(C(F)F)ccc3-c3cnc(CC(C)(C)C(F)(F)F)o3)cc2C1=O` [Example 26, 6-(6-(difluoromethyl)-3-(2-(3,3,3-trifluoro-2,2-dimethylpropyl)-oxazol-5-yl)pyridin-2-yl)-2-methylisoindolin-1-one]: 63 nM. Consider `CC(C)(C)Cc1ncc(-c2cc(F)cnc2-c2ccn3ccnc3c2)o1` [Example 27, 5-(5-fluoro-2-(imidazo[1,2-a]-pyridin-7-yl)-pyridin-3-yl)-2-neopentyloxazole], for which the EC50 worked out at 113 nM. For `CC(C)(Cc1ncc(-c2ccc(C#N)nc2-c2ccn3ccnc3c2)o1)C(F)(F)F` [Example 28, 6-(imidazo[1,2-a]-pyridin-7-yl)-5-(2-(3,3,3-trifluoro-2,2-dimethylpropyl)-oxazol-5-yl)picolino-nitrile] the value was 122 nM. Turning to `N#Cc1ccc(-c2cnc(CC3CCC3)o2)c(-c2ccc3cccnc3c2)n1` [Example 29, 5-(2-(cyclobutyl-methyl)oxazol-5-yl)-6-(quinolin-7-yl)-picolinonitrile], the EC50 was found to be 30 nM. Regarding `CC(C)(C)Cc1ncc(-c2ccc(C(F)F)nc2-c2ccn3cnnc3c2)o1` [Example 30, 5-(2-([1,2,4]triazolo-[4,3-a]pyridin-7-yl)-6-(difluoromethyl)-pyridin-3-yl)-2-neo-pentyloxazole], the EC50 was 86 nM. Take `CC(C)CCc1ncc(-c2ccc(C#N)nc2-c2ccc3cccnc3c2)o1` [Example 31, 5-(2-isopentyloxazol-5-yl)-6-(quinolin-7-yl)picolinonitrile]: the EC50 came out at 43 nM. As for `Cc1cn2ccc(-c3nc(C#N)ccc3-c3cnc(CC(C)(C)C)o3)cc2n1` [Example 32, 6-(2-methylimidazo-[1,2-a]pyridin-7-yl)-5-(2-neopentyloxazol-5-yl)picolinonitrile], the EC50 was determined as 69 nM. Turning to `Cc1cn2ccc(-c3nc(C#N)ccc3-c3cnc(CC(C)(C)C(F)(F)F)o3)cc2n1` [Example 33, 6-(2-methylimidazol-[1,2-a]pyridin-7-yl)-5-(2-(3,3,3-trifluoro-2,2-dimethylpropyl)-oxazol-5-yl)picolino-nitrile], the EC50 stood at 72 nM. On to `Cc1nc2cc(-c3nc(C#N)ccc3-c3cnc(CC(C)(C)C)o3)ccn2n1` [Example 34, 6-(2-methyl[1,2,4]-triazolo[1,5-a]pyridin-7-yl)-5-(2-neopentyl-oxazol-5-yl)picolino-nitrile], for which the EC50 came out at 107 nM.

Turning to `Cc1nnc2cc(-c3nc(C#N)ccc3-c3cnc(CC(C)(C)C)o3)ccn12` [Example 35, 6-(3-methyl-[1,2,4]-triazolo[4,3-a]pyridin-7-yl)-5-(2-neopentyl-oxazol-5-yl)picolino-nitrile], the EC50 was found to be 130 nM.

With `CC(C)(C)Cc1ncc(-c2ccc3cncn3c2-c2ccn3ccnc3c2)o1` [Example 36, 5-(5-(imidazo[1,2-a]-pyridin-7-yl)imidazo-[1,5-a]pyridin-6-yl)-2-neopentyloxazole], the EC50 worked out at 75 nM. Next, `COCc1cn2ccc(-c3nc(C#N)ccc3-c3cnc(CC(C)(C)C)o3)cc2n1` [Example 37, 6-(2-(methoxy-methyl)imidazo-[1,2-a]pyridin-7-yl)-5-(2-neopentyl-oxazol-5-yl)picolino-nitrile]: 78 nM; `CC(C)(C)Cc1ncc(-c2ccc(C#N)nc2-c2cnc3c(c2)C(=O)N(CC2CC2)C3)o1` [Example 39, 6-(6-(cyclopropyl-methyl)-5-oxo-6,7-dihydro-5H-pyrrolo[3,4-b]-pyridin-3-yl)-5-(2-neopentyloxazol-5-yl)picolinonitrile]: 93 nM. Next, `CC(CCc1ncc(-c2ccc(C#N)nc2-c2ccn3ccnc3c2)o1)C(F)(F)F` (stereo not shown) [Example 40, 6-(imidazo[1,2-a]-pyridin-7-yl)-5-(2-(4,4,4-trifluoro-3-methylbutyl)oxazol-5-yl)picolinonitrile]: 46 nM; `CN1Cc2ccc(-c3nc4c(cc3-c3cnc(CC5(C)CCCC5)o3)CCC4=O)cc2C1=O` [Example 41, 2-(2-methyl-3-oxoisoindolin-5-yl)-3-(2-((1-methyl-cyclopentyl)-methyl)oxazol-5-yl)-5,6-dihydro-7H-cyclopenta[b]-pyridin-7-one]: 45 nM.

On to `CC1(Cc2ncc(-c3cc4c(nc3-c3ccc5ccc(F)nc5c3)C(O)CC4)o2)CCCC1` (stereo not shown) [Example 42, 2-(2-fluoroquinolin-7-yl)-3-(2-((1-methylcyclopentyl)methyl)oxazol-5-yl)-6,7-dihydro-5H-cyclopenta[b]pyridin-7-ol], for which the EC50 worked out at 65 nM. As to `CC1(Cc2ncc(-c3cc4c(nc3-c3ccc5ccc(F)nc5c3)C(=O)CC4)o2)CCCC1` [Example 43, 2-(2-fluoroquinolin-7-yl)-3-(2-((1-methylcyclopentyl)methyl)oxazol-5-yl)-5,6-dihydro-7H-cyclopenta[b]pyridin-7-one], the EC50 stood at 43 nM.

Regarding `Cc1ccc(-c2cnc(CC3CCCC3)o2)c(-c2ccc3c(c2)C(=O)N(C)C3)n1` [Example 46, 6-(3-(2-(cyclopentylmethyl)oxazol-5-yl)-6-methylpyridin-2-yl)-2-methylisoindolin-1-one], the EC50 was determined as 13 nM.

In the case of `Cc1ccc(-c2cnc(Cc3ccccc3)o2)c(-c2ccc3cccnc3c2)n1` [Example 47, 2-benzyl-5-(6-methyl-2-(quinolin-7-yl)pyridin-3-yl)oxazole], the EC50 came out at 24 nM. `COc1cc2ccc(-c3nc(C)ccc3-c3cnc(Cc4ccccc4F)o3)cc2nn1` [Example 48, 2-(2-fluorobenzyl)-5-(2-(3-methoxycinnolin-7-yl)-6-methylpyridin-3-yl)oxazole]: the EC50 is 19 nM. Turning to `Cn1cnc2cc(-c3nc(C(F)F)ccc3-c3cnc(CC4CCCC4)o3)cnc21` [Example 49, 2-(cyclopentylmethyl)-5-(6-(difluoromethyl)-2-(3-methyl-3H-imidazo[4,5-b]pyridin-6-yl)pyridin-3-yl) oxazole], the EC50 was determined as 45 nM. Regarding `N#Cc1ccc(-c2cnc(CC3CCCC3)o2)c(-c2ccc3cccnc3c2)n1` [Example 50, 5-(2-(cyclopentylmethyl)oxazol-5-yl)-6-(quinolin-7-yl)picolinonitrile], the EC50 worked out at 24 nM.

For the compound `N#Cc1ccc(-c2cnc(CC3CCCC3)o2)c(-c2cnc3c(c2)C(=O)N(CC2CC2)C3)n1` [Example 51, 5-(2-(cyclopentylmethyl)oxazol-5-yl)-6-(6-(cyclopropylmethyl)-5-oxo-6,7-dihydro-5H-pyrrolo[3,4-b]pyridin-3-yl) picolinonitrile], the EC50 was 42 nM.
